Reference: patent US8269012B2, “Aminopyrazole triazolothiadiazole inhibitors of c-met protein kinase” (Vertex Pharmaceuticals Incorporated, priority 2009, dated 2012)

Tests used:
A549HGF cells = assay: Inhibition of tumor metastasis to the lungs, subcutaneous A549HGF tumors in SCID mice; assay type: in vivo
Protocol: Compound 3 was investigated for its ability to inhibit the metastasis of subcutaneously implanted tumors to the lungs of severe combined immunodeficient (SCID) mice. Accordingly, A549 cells (A549HGF-1m1115, transfected with hepatocyte growth factor, luciferase, and green fluorescent protein) were cultured in RPMI1640 medium (Invitrogen, Carlsbad, Calif.) supplemented with 10% fetal bovine serum (FBS) (Hyclone, Logan, Utah), 100 units/mL of penicillin, […] of streptomycin (Invitrogen, Carlsbad, Calif.), and 2 mM L-glutamine for fewer than 4 passages prior to implantation. […]
Female SCID mice were injected subcutaneously (s.c.) with 5×10^6 A549HGF cells into the right dorsal axillary region on Day 0. […] Ectopic tumor measurements were recorded twice a week for 3 weeks after the initiation of treatment.
In order to evaluate the anti-metastatic potential of Compound 3, at the termination of the study all animal lung tissues were harvested and lysed by homogenization for ex vivo quantification via luciferase luminescence.

[1] = tested on: SNU-5 gastric cancer cells; assay: Inhibition of tumor growth of subcutaneously implanted SNU-5 cells in SCID mice; assay type: in vivo; conditions: all three dose levels tested (3, 10, 30 mg/kg/day)
Protocol: Compound 3 was investigated for its ability to inhibit tumor growth of subcutaneously implanted SNU-5 gastric cancer cells in severe combined immunodeficient (SCID) mice. SNU-5 cells (CRL-5973, American Type Culture Collection, Manassas, Va.) were cultured in ISCOVE's Modified Dulbecco's Medium (IMDM) (Invitrogen, Carlsbad, Calif.) supplemented with 10% fetal bovine serum (FBS) (Hyclone, Logan, Utah), 100 units/mL of penicillin, […] of streptomycin (Invitrogen, Carlsbad, Calif.), and 2 mM L-glutamine. Cells were cultured for fewer than 4 passages prior to implantation. Female SCID mice (Fox Chase SCID, CB-17, mice weighing 17 to 19 g obtained from Charles River Laboratories, Wilmington, MA) were injected subcutaneously (s.c.) with 5×10^6 SNU-5 cells into the right dorsal axillary region on Day 0. […]
Compound 3, formulated in a vehicle containing 30% (w/v) Propylene Glycol and 10% Solutol (Sigma-Aldrich, St Louis, Mo.) as a suspended homogenous form, was administered orally (p.o.) once daily (QD) at total daily doses of 3, 10, and 30 mg/kg/day for 14 days. Tumor volumes (calculated using the ellipsoid formula, […], where length and width represented the largest and smallest dimensions of the tumor, respectively) were recorded for two weeks after the initiation of treatment. […]

For `Cn1cc(Nc2nn3c(C(F)(F)c4ccc5ncccc5c4)nnc3s2)cn1` [Compound 3, 3-(Difluoro(quinolin-6-yl)methyl)-N-(1-methyl-1H-pyrazol-4-yl)-[1,2,4]triazolo[3,4-b][1,3,4]thiadiazol-6-amine], the “formation of lung metastases” value (A549HGF cells; 60 mg/kg/day compared to vehicle controls, p<0.02) was “significantly inhibits the formation of lung metastases”, the “change in primary A549 tumor cell growth at the site of implantation vs vehicle” value (A549HGF cells; 30 or 60 mg/kg/day p.o. QD, 22 days) was “no significant change” and the anti-tumor activity [1] was “significant and dose-dependent anti-tumor activity”.
